Laboratory results taken from patent publication US20170165259A1, “COMBINED MODULATION OF IRE1” (THE REGENTS OF THE UNIVERSITY OF CALIFORNIA, priority 2014, published 2017).
Each block holds one compound with its values, some of them ahead of it.

Assays:
[1] = test system: IRE1α mutants that lack kinase activity; settings: cited from earlier work
[2] = test system: endogenous IRE1α; experiment: XBP1 mRNA splicing in INS-1 cells under ER stress; type: cell-based, rat
Procedure: (§1) FIGS. 5A-5E. […] (FIG. 5C) EtBr-stained agarose gel of XBP1 complementary DNA (cDNA) amplicons from the INS-1 cells described in (B).
(§2) To further explore how IRE1α modulators affect the kinase and RNase activities of endogenous IRE1α under ER stress, in vivo studies using INS-1 rat insulinoma cell lines, which are derived from insulin-producing pancreatic β-cell tumors and contain large well-developed ERs, were conducted.

[3] = test system: endogenous IRE1α; experiment: IRE1α auto-phosphorylation immunoblot in INS-1 cells under ER stress; type: cell-based, rat
Procedure: as §1, §2
For protein analysis, cells were lysed in M-PER buffer (Thermo Scientific) plus complete EDTA-free protease inhibitor (Roche) and phosphatase inhibitor cocktail (Sigma). The concentration of samples was determined using BCA Protein Assay (Thermo). […] Gels were run using MES buffer and transferred onto nitrocellulose transfer membrane using an XCell II™ Blot Module. Blocking, antibody incubation, and washing were done in PBS or TBS with 0.05% Tween-20 (v/v) and 5% (w/v) non-fat dry milk or BSA, or blocking buffer (Licor-Odyssey). Antibodies used were: mouse anti-Actin (Sigma-Aldrich); rabbit anti-cleaved Caspase-2 (Abcam); mouse anti-GAPDH, anti-c-Myc, anti-rabbit, anti-proinsulin, and anti-IRE1α (Santa Cruz Biotechnology); anti-phospho-IRE1α and anti-full length Caspase-2 (Novus Biologicals); and rabbit anti-Caspase-3, anti-JNK, anti-eIF2a, anti-phospho-eIF2a, and mouse anti-phospho-JNK (Cell Signaling). Antibody binding was detected by using near-infrared-dye-conjugated secondary antibodies (Licor) on the LI-COR Odyssey scanner or visualized by capturing on a CL-XPosure film using ECL SuperSignal West Dura Extended Duration Substrate (both from Thermo Scientific).

[4] = target: T1, IRE1α* (Homo sapiens, UniProt O75460); experiment: IRE1α* autophosphorylation kinase assay in vitro; type: biochemical
T1 construct: human IRE1α (residues 469-977, IRE1α*); made in house; host or cells: SF9 insect cells, Bac-to-Bac baculovirus

[5] = target: T1, IRE1α*; experiment: XBP1 RNA minisubstrate (FRET-quenched) RNase assay; type: biochemical; settings: for IRE1α* RNase activity (XBP1 RNA cleavage), effect in words: in vitro
[6] = target: T2, dP-IRE1α* (Homo sapiens, UniProt O75460); experiment: XBP1 RNA minisubstrate RNase assay with dephosphorylated IRE1α*; type: biochemical; settings: of the levels of IRE1α*; increasing APY29
T2 construct: human IRE1α (residues 469-977, IRE1α*); made in house; host or cells: SF9 insect cells, then λ-phosphatase (NEB) treatment
Text: Reactions were quenched by addition of 4 M urea at different time points and then were subjected to urea 6% PAGE analysis.

[7] = target: T1, IRE1α*; experiment: DSS crosslinking, oligomer/monomer ratio of IRE1α*; type: biochemical; settings: saturating inhibitor, DSS crosslinker
[8] = target: T1, IRE1α*; experiment: ICAT cysteine footprinting (alkylation rates); type: binding; settings: inhibitor 20 μM
Text: FIGS. 3A-3D. Characterization of GP146's interaction with the ATP-binding site of IRE1α. (FIG. 3A) A crystal structure of the kinase domain of human IRE1α bound to ADP; the native cysteine residues that were monitored using the ICAT footprinting method are labeled and shown as thick rods and the DFG-motif is shown as thin bars; cys715 is part of the hinge region of IRE1α and its side chain partially occupies the ATP-binding site; cys645 is in the activation loop, two residues away from the DFG-motif; cys572 is located on the top of the N-terminal lobe of the catalytic domain and is distant from the ATP-binding site.
As Cys645 and Cys715 are located within the ATP-binding cleft of IRE1α, the accessibility of these residues would be expected to be affected by ligands that occupy this site, while Cys572 is a solvent-exposed residue located on the top of the N-terminal lobe of the kinase.

[9] = Compound toxicity / proliferative blocks in cells; type: cell-based
[10] = target: T3, IRE1α* (P830L) (Homo sapiens, UniProt O75460, P830L); experiment: IRE1α* (P830L) cancer mutant: kinase, RNase, oligomeric state in vitro; type: biochemical
T3 construct: human IRE1α (residues 469-977, IRE1α*) or equivalent IRE1α mutants; made in house; host or cells: SF9 insect cells, Bac-to-Bac baculovirus
Text: Compared to IRE1α* (WT), IRE1α* (P830L) has reduced kinase activity, as the full-length protein does in vivo. […] IRE1α* (P830L) cannot cleave a FRET-quenched XBP1 RNA mini-substrate (Han et al., 2009), consistent with reduced RNase activity in vivo.
A construct containing the cytosolic kinase and RNase domains of human IRE1α (residues 469-977, IRE1α*) or equivalent IRE1α mutants was expressed in SF9 insect cells using the Bac-to-Bac baculovirus expression system (Invitrogen) as described (Wang et al., 2012). […] (NEB)-treated dephosphorylated IRE1α* (dP-IRE1α*) was also prepared and all the crosslinking experiments were performed as described (Wang et al., 2012). The RNase assay using 5′FAM-3′BHQ-labeled XBP1 single stem-loop minisubstrate (5′FAM-[…]-3′BHQ, from Dharmacon) (SEQ ID NO:22), and the IRE1α*auto-phosphorylation kinase assay were both done as described (Wang et al., 2012). The ability of KIRA6 to inhibit the catalytic activity of Erk2, JNK2, JNK3, PKA, and Piml was determined using previously reported assay conditions (Hill et al., 2012). Internally ^32P-labelled RNAs (mouse XBP1 RNA and Ins2 RNA, as described in (Han et al., 2009), and rat rhodopsin mRNA) were also used as substrates. For time-course determination, IRE1α* proteins (16 nM) were incubated with or without 10 μM 1NM-PP1 for 20 min prior to addition of 20 nM radio-labeled RNAs. Reactions were quenched by addition of 4 M urea at different time points and then were subjected to urea 6% PAGE analysis. […] The cleavage buffer and general manipulation are the same as described (Wang et al., 2012). cDNA for rat rhodopsin was purchased from Invitrogen and amplified by PCR using primers: 5′-[…]-3′ (forward) (SEQ ID NO:23) and 5′-[…]-3′ (reverse) (SEQ ID NO:24). RNA was in vitro transcribed, cleaved by IRE1α*, and the cleavage sites mapped as described (Wang et al., 2012).

[11] = test system: yeast and murine IRE1α; settings: cited from earlier work
[12] = test system: panel of kinases (Src, Abl); experiment: Counter-screen against a panel of kinases; type: biochemical; settings: 12 kinases in this panel
[13] = target: T1, IRE1α*; experiment: IRE1α* kinase assay (96-well dot blot, 32γ-ATP, STK peptide substrate 2); type: biochemical
Procedure: FIGS. 16A-16C. Divergent modulation of IRE1α RNase activity using distinct classes of kinase inhibitors. (FIG. 16A) KIRA6 inhibition of IRE1α* kinase activity. IC50 values determined by fitting percent kinase activity (n=3); Urea PAGE of competition cleavage by IRE1α* of XBP1 RNA mini-substrate (FIG. 16B) and α^32P-labeled Ins2 RNA (FIG. 16C), under indicated [KIRA6]; IC50s determined by fitting in-gel fluorescence intensities (XBP1) and phosphorimager (Ins2).
KIRAs are tested for ability to inhibit IRE1α* kinase and RNase activities in vitro. The XBP1 minisubstrate assay shown in FIGS. 1B-1C, is amenable to 96- or 384-well format, and is used to determine RNase IC50s. In parallel, kinase IC50s for all KIRAs are determined in a 96-well dot blot assay with 32γ-ATP and STK peptide substrate 2 as substrates. Time-dependence of inhibition is determined for all electrophile-containing KIRAs. RNase and kinase assays have been used to profile the KIRAs in FIG. 13, showing a strong correlation between kinase and RNase IC50s. […] Thus, the structure-based design strategy uses these two kinases as counter targets (described below).

[14] = varying concentration of the tested inhibitor

T1 sequence (O75460 469-977): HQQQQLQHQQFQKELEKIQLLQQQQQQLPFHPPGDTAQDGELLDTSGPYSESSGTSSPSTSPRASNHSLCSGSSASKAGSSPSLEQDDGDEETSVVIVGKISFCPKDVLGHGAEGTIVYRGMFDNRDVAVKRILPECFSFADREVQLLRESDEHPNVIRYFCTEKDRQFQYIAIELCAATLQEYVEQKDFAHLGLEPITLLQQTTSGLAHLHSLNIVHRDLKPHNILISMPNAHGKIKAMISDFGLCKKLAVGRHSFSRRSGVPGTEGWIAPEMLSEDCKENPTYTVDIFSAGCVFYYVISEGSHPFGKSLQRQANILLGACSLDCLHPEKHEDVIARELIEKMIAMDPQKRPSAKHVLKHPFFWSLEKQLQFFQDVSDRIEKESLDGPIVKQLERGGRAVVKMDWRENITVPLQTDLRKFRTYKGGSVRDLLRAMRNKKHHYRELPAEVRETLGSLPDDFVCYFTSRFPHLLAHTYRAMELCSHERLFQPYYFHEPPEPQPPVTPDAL
T3 sequence (O75460 469-977 P830L): as the sequence (O75460 469-977) above, with P362L counted along it
T2 sequence (O75460 469-977): as the sequence (O75460 469-977) above

SMILES: CC(C)(C)n1nc(Cc2cccc3ccccc23)c2c(N)ncnc21 [1NM-PP1]
- RNase activity of kinase-inactive IRE1α mutants [1]: able to rescue the RNase activity of IRE1α mutants that lack kinase activity

SMILES: CNc1nccn2c(C(C)(C)C)nc(-c3ccc(NC(=O)Nc4cccc(C(F)(F)F)c4)c4ccccc34)c12 [(NMe)KIRA6, 1-(4-(8-methylamino-3-tert-butylimidazo[1,5-a]pyrazin-1-yl)naphthalen-1-yl)-3-(3-(trifluoromethyl)phenyl)urea]
- XBP1 mRNA splicing in INS-1 cells ([2]; by Tm, compound at 10 μM): inhibits neither output
- endogenous IRE1α auto-phosphorylation in INS-1 cells ([3]; by Tg, compound at 10 μM): inhibits neither output

SMILES: c1cc(Nc2cc(C3CC3)[nH]n2)nc(Nc2ccc3nc[nH]c3c2)n1 [APY29]
- IC50 [4]: 280 nM
- IRE1α* RNase activity (XBP1 RNA cleavage), effect in words [5]: acting as an activator
- RNase competition, IRE1α* under fixed KIRA3 (GP146) [5, 14]: progressively reverse IRE1α* RNase inhibition caused by a fixed concentration of KIRA3
- RNase competition, IRE1α* under fixed STF-083010 [5, 14]: cannot rescue direct inhibition caused by the covalent RNase modifier STF-083010
- dP-IRE1α* cleavage of XBP1 mini-substrate restored, plateau [6]: ~60%
- IRE1α* oligomerization (oligomer/monomer ratio) [7]: further enhances
- accessibility of Cys572 [8]: no detectable difference
- accessibility of Cys645 to alkylating agents [8]: highly shielded from alkylating agents
- accessibility of Cys715 (rate of alkylation) [8]: slowing the rate of alkylation
- toxicity in cells [9]: pleiotropic toxicity, including proliferative blocks at low micromolar concentrations
- RNase activity of IRE1α* (P830L) [10]: partially rescue RNase activity
- autophosphorylation by IRE1α* (P830L) [10]: suppresses residual autophosphorylation
- oligomeric state of IRE1α* (P830L) [10]: increases IRE1α* (P830L)'s oligomeric state
- RNase of yeast and murine IRE1α [11]: directly activate the RNase of yeast and murine IRE1α

SMILES: CC(C)c1nc(-c2ccc(NC(=O)c3cccc(C(F)(F)F)c3)c3ccccc23)c2c(N)nccn12 [GP146(Am), N-(4-(8-amino-3-isopropylimidazo[1,5-a]pyrazin-1-yl)naphthalen-1-yl)-3-(trifluoromethyl)benzamide]
- IRE1α* RNase activity (XBP1 RNA cleavage), effect in words [5]: markedly diminished ability to inhibit the RNase activity of IRE1α compared to GP146

SMILES: CNc1nccn2c(C(C)C)nc(-c3ccc(NC(=O)Nc4cccc(C(F)(F)F)c4)c4ccccc34)c12 [GP146(NMe), 1-(4-(3-isopropyl-8-(methylamino)imidazo[1,5-a]pyrazin-1-yl)naphthalen-1-yl)-3-(3-(trifluoromethyl)phenyl)urea]
- IRE1α* RNase activity (XBP1 RNA cleavage), effect in words [5]: markedly diminished ability to inhibit the RNase activity of IRE1α compared to GP146
- XBP1 mRNA splicing (IRE1α RNase activity) in INS-1 cells ([2]; thapsigargin (Tg) 6 nM): does not block the splicing of XBP1 mRNA

- IRE1α* RNase activity (XBP1 RNA cleavage), effect in words [5]: significant increase in overall potency
SMILES: CC(C)c1nc(-c2ccc(NC(=O)Nc3cccc(C(F)(F)F)c3)cc2)c2c(N)nccn12 [KIRA2, 1-(4-(8-amino-3-isopropylimidazo[1,5-a]pyrazin-1-yl)phenyl)-3-(3-(trifluoromethyl)phenyl)urea]

SMILES: CC(C)c1nc(-c2ccc(NC(=O)Nc3cccc(C(F)(F)F)c3)c3ccccc23)c2c(N)nccn12 [KIRA3, 1-(4-(8-amino-3-isopropylimidazo[1,5-a]pyrazin-1-yl)naphthalen-1-yl)-3-(3-(trifluoromethyl)phenyl)urea]
- off-target inhibition in kinase panel [12]: the only off-target inhibition observed is for the tyrosine kinases Src and Abl
- endogenous IRE1α auto-phosphorylation in INS-1 cells ([3]; ER stress (Tg)): abrogates IRE1α autophosphorylation

- IC50 ([5]; IRE1α*): < 30 nM
- IC50 [13]: 35 nM
SMILES: CC(C)(C)c1nc(-c2ccc(NC(=O)Nc3cccc(F)c3)c3ccccc23)c2c(N)nccn12 [KIRA7]
